Legend:
Type in all cases: functional, cell-based
[1] = biological target: T1, ATP-dependent translocase ABCB1 (Homo sapiens, UniProt P08183); experiment: TP_TRANSPORTER: inhibition of Daunorubicin transepithelial transport (basal to apical) (Daunorubicin: 0.035 uM, Oxidized nifedipine: 50 uM) in MDR1-expressing LLC-PK1 cells; details: pig, llc-pk1, 50 µM
[2] = biological target: T1, ATP-dependent translocase ABCB1; experiment: TP_TRANSPORTER: inhibition of Digoxin transepithelial transport (basal to apical) (Digoxin: 0.025 uM, Oxidized nifedipine: 50 uM) in MDR1-expressing LLC-PK1 cells; details: pig, llc-pk1, 50 µM
[3] = biological target: T1, ATP-dependent translocase ABCB1; experiment: TP_TRANSPORTER: inhibition of Daunorubicin transepithelial transport (basal to apical)(Daunorubicin: 0.035 uM, 4-hydroxymidazolam: 50 uM) in MDR1-expressing LLC-PK1 cells; details: pig, llc-pk1, 50 µM
[4] = biological target: T1, ATP-dependent translocase ABCB1; experiment: TP_TRANSPORTER: inhibition of Daunorubicin transepithelial transport (basal to apical)(Daunorubicin: 0.035 uM, 6-hydroxyazelastine: 50 uM) in MDR1-expressing LLC-PK1 cells; details: pig, llc-pk1, 50 µM
[5] = biological target: T1, ATP-dependent translocase ABCB1; experiment: TP_TRANSPORTER: inhibition of Digoxin transepithelial transport (basal to apical)(Digoxin: 0.025 uM, 6-hydroxyazelastine: 50 uM) in MDR1-expressing LLC-PK1 cells; details: pig, llc-pk1, 50 µM
[6] = biological target: T1, ATP-dependent translocase ABCB1; experiment: TP_TRANSPORTER: inhibition of Daunorubicin transepithelial transport (basal to apical)(Daunorubicin: 0.035 uM, 6beta-hydroxytestosterone: 50 uM) in MDR1-expressing LLC-PK1 cells; details: pig, llc-pk1, 50 µM
[7] = biological target: T1, ATP-dependent translocase ABCB1; experiment: TP_TRANSPORTER: inhibition of Digoxin transepithelial transport (basal to apical)(Digoxin: 0.025 uM, 6beta-hydroxytestosterone: 50 uM) in MDR1-expressing LLC-PK1 cells; details: pig, llc-pk1, 50 µM
[8] = biological target: T1, ATP-dependent translocase ABCB1; experiment: TP_TRANSPORTER: inhibition of Daunorubicin transepithelial transport (basal to apical)(Daunorubicin: 0.035 uM, 1'-hydroxymidazolam: 50 uM) in MDR1-expressing LLC-PK1 cells; details: pig, llc-pk1, 50 µM
[9] = biological target: T1, ATP-dependent translocase ABCB1; experiment: TP_TRANSPORTER: inhibition of Digoxin transepithelial transport (basal to apical)(Digoxin: 0.025 uM, 1'-hydroxymidazolam: 50 uM) in MDR1-expressing LLC-PK1 cells; details: pig, llc-pk1, 50 µM
[10] = biological target: T1, ATP-dependent translocase ABCB1; experiment: TP_TRANSPORTER: inhibition of Daunorubicin transepithelial transport (basal to apical) (Daunorubicin: 0.035 uM) in MDR1-expressing LLC-PK1 cells
[11] = biological target: T1, ATP-dependent translocase ABCB1; experiment: TP_TRANSPORTER: inhibition of Digoxin transepithelial transport (basal to apical) (Digoxin: 0.025 uM) in MDR1-expressing LLC-PK1 cells
[12] = biological target: T1, ATP-dependent translocase ABCB1; experiment: TP_TRANSPORTER: inhibition of Digoxin transepithelial transport (basal to apical)(Digoxin: 0.025 uM, Midazolam: 50 uM) in MDR1-expressing LLC-PK1 cells; details: pig, llc-pk1, 50 µM
[13] = biological target: T1, ATP-dependent translocase ABCB1; experiment: TP_TRANSPORTER: inhibition of Daunorubicin transepithelial transport (basal to apical)(Daunorubicin: 0.035 uM, Midazolam: 50 uM) in MDR1-expressing LLC-PK1 cells; details: pig, llc-pk1, 50 µM
[14] = biological target: T1, ATP-dependent translocase ABCB1; experiment: TP_TRANSPORTER: inhibition of Daunorubicin transepithelial transport (basal to apical) (Daunorubicin: 0.035 uM, Nifedipine: 50 uM) in MDR1-expressing LLC-PK1 cells; details: pig, llc-pk1, 50 µM
[15] = biological target: T1, ATP-dependent translocase ABCB1; experiment: TP_TRANSPORTER: inhibition of Daunorubicin transepithelial transport (basal to apical)(Daunorubicin: 0.035 uM, Testosterone: 50 uM) in MDR1-expressing LLC-PK1 cells; details: pig, llc-pk1, 50 µM
[16] = biological target: T1, ATP-dependent translocase ABCB1; experiment: TP_TRANSPORTER: inhibition of Digoxin transepithelial transport (basal to apical)(Digoxin: 0.025 uM, Testosterone: 50 uM) in MDR1-expressing LLC-PK1 cells; details: pig, llc-pk1, 50 µM

T1 sequence (P08183 whole entry): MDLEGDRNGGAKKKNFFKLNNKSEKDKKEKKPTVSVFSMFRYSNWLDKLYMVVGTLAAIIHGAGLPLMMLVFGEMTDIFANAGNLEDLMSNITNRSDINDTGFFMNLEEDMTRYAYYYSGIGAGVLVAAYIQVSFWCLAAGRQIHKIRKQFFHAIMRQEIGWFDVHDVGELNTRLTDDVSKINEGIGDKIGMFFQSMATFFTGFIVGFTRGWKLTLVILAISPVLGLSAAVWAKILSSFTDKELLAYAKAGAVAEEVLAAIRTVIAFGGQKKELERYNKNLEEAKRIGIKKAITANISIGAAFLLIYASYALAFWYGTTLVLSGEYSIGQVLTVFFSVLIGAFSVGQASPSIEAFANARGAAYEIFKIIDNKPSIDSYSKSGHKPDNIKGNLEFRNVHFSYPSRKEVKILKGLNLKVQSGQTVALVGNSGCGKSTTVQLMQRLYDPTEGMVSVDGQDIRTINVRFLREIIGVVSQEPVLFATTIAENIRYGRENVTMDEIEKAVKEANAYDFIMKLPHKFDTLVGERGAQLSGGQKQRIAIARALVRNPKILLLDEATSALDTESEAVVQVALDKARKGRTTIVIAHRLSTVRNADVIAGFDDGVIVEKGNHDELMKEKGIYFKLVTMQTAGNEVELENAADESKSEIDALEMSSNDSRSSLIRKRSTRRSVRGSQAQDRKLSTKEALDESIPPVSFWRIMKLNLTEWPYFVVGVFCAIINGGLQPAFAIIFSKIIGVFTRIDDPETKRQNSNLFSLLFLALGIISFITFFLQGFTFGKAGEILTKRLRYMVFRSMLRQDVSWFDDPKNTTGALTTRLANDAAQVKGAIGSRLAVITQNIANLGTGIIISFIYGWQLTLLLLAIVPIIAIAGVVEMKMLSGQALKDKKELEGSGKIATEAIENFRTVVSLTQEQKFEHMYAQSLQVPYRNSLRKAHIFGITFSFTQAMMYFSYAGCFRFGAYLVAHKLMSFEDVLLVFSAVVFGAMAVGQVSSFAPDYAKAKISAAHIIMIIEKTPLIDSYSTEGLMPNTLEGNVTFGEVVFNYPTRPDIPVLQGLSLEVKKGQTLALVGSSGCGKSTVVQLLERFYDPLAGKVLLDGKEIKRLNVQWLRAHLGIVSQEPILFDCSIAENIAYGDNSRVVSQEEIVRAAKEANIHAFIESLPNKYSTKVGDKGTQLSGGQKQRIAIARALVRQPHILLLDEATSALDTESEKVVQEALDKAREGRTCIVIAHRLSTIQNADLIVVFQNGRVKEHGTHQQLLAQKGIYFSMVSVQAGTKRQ

SMILES: COC(=O)c1c(C)nc(C)c(C(=O)OC)c1-c1ccccc1[N+](=O)[O-]
- Activity [1]: is not an inhibitor [-]
- Activity [2]: is not an inhibitor [-]

SMILES: Cc1ncc2n1-c1ccc(Cl)cc1C(c1ccccc1F)=NC2O (stereo not given) [4-Hydroxymidazolam]
- Activity [3]: is not an inhibitor [-]

SMILES: CN1CCCC(N2NC(Cc3ccc(Cl)cc3)c3cc(O)ccc3C2=O)CC1 (stereo not given) [6-hydroxyazelastine]
- Activity [4]: is not an inhibitor [-]
- Activity [5]: is not an inhibitor [-]

SMILES: C[C@]12CC[C@H]3[C@@H](C[C@@H](O)C4=CC(=O)CC[C@@]43C)[C@@H]1CC[C@@H]2O [6beta-hydroxytestosterone]
- Activity [6]: is not an inhibitor [-]
- Activity [7]: is not an inhibitor [-]

SMILES: OCc1ncc2n1-c1ccc(Cl)cc1C(c1ccccc1F)=NC2 [ALPHA-HYDROXY-MIDAZOLAM]
- Activity [8]: is not an inhibitor [-]
- Activity [9]: is not an inhibitor [-]

SMILES: CN1CCCC(n2nc(Cc3ccc(Cl)cc3)c3ccccc3c2=O)CC1 (stereo not given) [AZELASTINE]
- IC50 [10]: 16 µM
- IC50 [11]: 30 µM

SMILES: CCCCc1oc2ccccc2c1C(=O)c1cc(I)c(OCCNCC)c(I)c1 [DESETHYLAMIODARONE]
- IC50 [10]: 15.4 µM
- IC50 [11]: 25.2 µM

SMILES: O=c1c2ccccc2c(Cc2ccc(Cl)cc2)nn1C1CCCNCC1 (stereo not given) [DESMETHYLAZELASTINE]
- IC50 [10]: 11.8 µM
- IC50 [11]: 41.8 µM

SMILES: Cc1ncc2n1-c1ccc(Cl)cc1C(c1ccccc1F)=NC2 [MIDAZOLAM]
- Activity [12]: is not an inhibitor [-]
- Activity [13]: is not an inhibitor [-]

SMILES: COC(=O)C1=C(C)NC(C)=C(C(=O)OC)C1c1ccccc1[N+](=O)[O-] [NIFEDIPINE]
- Activity [14]: is not an inhibitor [-]

SMILES: C[C@]12CC[C@H]3[C@@H](CCC4=CC(=O)CC[C@@]43C)[C@@H]1CC[C@@H]2O [TESTOSTERONE]
- Activity [15]: is not an inhibitor [-]
- Activity [16]: is not an inhibitor [-]

Source: ChEMBL document CHEMBL2074031, “Inhibitory effects of CYP3A4 substrates and their metabolites on P-glycoprotein-mediated transport” (Eur J Pharm Sci, 2001)
